Results on 28 compounds are retold here after patent publication US20220144853A1, “IMIDAZOLINE DERIVATIVES AS CXCR4 MODULATORS” (Université de Paris, priority 2019, published 2022).

Each structure is given as a SMILES string. Counter-ions that a name gives are not always drawn.

Take `CC1(C)CN2C(CSC3=N[C@@H]4CCCC[C@@H]4N3)=CSC2=N1` (as salt: hydrochloride) [Example 5, 3-((((3R,7aS)-3a,4,5,6,7,7a-hexahydro-1H-benzo[d]imidazol-2-yl)thio)methyl)-6,6-dimethyl-5,6-dihydroimidazo[2,1-b]thiazole dihydrochloride]: the melting point was more than 250 °C.

`CCCCC1CN=C(SCC2=CSC3=NCCN23)N1` (stereo not shown) (as salt: hydrochloride) [Example 30, 3-(((5-butyl-4,5-dihydro-1H-imidazol-2-yl)thio)methyl)-5,6-dihydroimidazo[2,1-b]thiazole dihydrochloride] returned a melting point of 176 to 178 °C. The figure for `CC1(C)CN2C(CSC3=N[C@@H]4CCCC[C@H]4N3)=CSC2=N1` (as salt: hydrochloride) [Example 3, 3-((((3aR,7aR)-3a,4,5,6,7a-hexahydro-1H-benzo[d]imidazol-2-yl)thio)methyl)-6,6-dimethyl-5,6-dihydroimidazo[2,1-b]thiazole dihydrochloride] is 65 to 75 °C; for `CC1(C)CN=C(SCC2=CSC3=NC(C)(C)C(C)(C)N23)N1` (as salt: hydrochloride) [Example 20, 3-(((5,5-dimethyl-4,5-dihydro-1H-imidazol-2-yl)thio)methyl)-5,5,6,6-tetramethyl-5,6-dihydroimidazo[2,1-b]thiazole dihydrochloride] it is 140 to 160 °C; for `CC(C)[C@@H]1N=C(SCC2=CSC3=NC(C)(C)CN23)N[C@H]1C(C)C` (as salt: hydrochloride) [Example 58, 3-((((4S,5S)-4,5-diisopropyl-4,5-dihydro-1H-imidazol-2-yl)thio)methyl)-6,6-dimethyl-5,6-dihydroimidazo[2,1-b]thiazole dihydrochloride] it is 154 to 160 °C. The figure for `C1=C(CSC2=NCC(Cc3ccccc3)N2)N2C(=N[C@H]3CCCCC32)S1` (mixture of isomers) (as salt: hydrochloride) [Example 55, trans-3-(((5-benzyl-4,5-dihydro-1H-imidazol-2-yl)thio)methyl)-4a,5,6,7,8,8a-hexahydrobenzo[4,5]imidazo[2,1-b]thiazole dihydrochloride] is 137 to 142 °C; for `CC1(C)CN2C(CSC3=NCC4CCCCC4N3)=CSC2=N1` (stereo not shown) (as salt: hydrochloride) [Example 40, 6,6-dimethyl-3-(((1,4,4a,5,6,7,8,8a-octahydroquinazolin-2-yl)thio)methyl)-5,6-dihydroimidazo[2,1-b]thiazole dihydrochloride] it is 245 to 249 °C; for `CC(C)C1CN=C(SCC2=CSC3=NC(C)(C)CN23)N1` (stereo not shown) (as salt: hydrochloride) [Example 49, 3-(((5-isopropyl-4,5-dihydro-1H-imidazol-2-yl)thio)methyl)-6,6-dimethyl-5,6-dihydroimidazo[2,1-b]thiazole dihydrochloride] it is 234 to 237 °C. The figure for `C1=C(CSC2=NCCN2)N2C(=N[C@H]3CCCCC32)S1` (mixture of isomers) (as salt: hydrochloride) [Example 59, trans-3-(((4,5-dihydro-1H-imidazol-2-yl)thio)methyl)-4a,5,6,7,8,8a-hexahydrobenzo[4,5]imidazo[2,1-b]thiazole dihydrochloride] is 115 to 120 °C; for `C1=C(CSC2=NCCCN2)N2CCCCN=C2S1` (as salt: hydrochloride) [Example 37, 3-(((1,4,5,6-tetrahydropyrimidin-2-yl)thio)methyl)-5,6,7,8-tetrahydrothiazolo[3,2-a][1,3]diazepine dihydrochloride] it is more than 250 °C. `CC1(C)CN=C(SCCc2cccc3ncccc23)N1` (as salt: hydrochloride) [Example 41, 5-(2-((5,5-dimethyl-4,5-dihydro-1H-imidazol-2-yl)thio)ethyl)quinoline dihydrochloride]: the melting point fell in the range of 240 to 245 °C.

`C1=C(CSC2=NCC(Cc3ccccc3)N2)N2CC(Cc3ccccc3)N=C2S1` (stereo not shown) (as salt: hydrochloride) [Example 60, 6-benzyl-3-(((5-benzyl-4,5-dihydro-1H-imidazol-2-yl)thio)methyl)-5,6-dihydroimidazo[2,1-b]thiazole dihydrochloride] came in with a melting point of 117 to 121 °C. The figure for `CC1(C)CN=C(SCC2=CSC3=NCCN23)N1` (as salt: hydrochloride) [Example 21, 3-(((5,5-dimethyl-4,5-dihydro-1H-imidazol-2-yl)thio)methyl)-5,6-dihydroimidazo[2,1-b]thiazole dihydrochloride] is 220 to 230 °C; for `C1=C(CSC2=N[C@@H]3CCCC[C@H]3N2)N2CCCN=C2S1` (as salt: hydrochloride) [Example 45, 3-((((3aR,7aR)-3a,4,5,6,7,7a-hexahydro-1H-benzo[d]imidazol-2-yl)thio)methyl)-6,7-dihydro-5H-thiazolo[3,2-a]pyrimidine dihydrochloride] it is more than 250 °C; for `CC1(C)CN=C(SCC2=CSC3=NC(C)(C)CN23)NC1` (as salt: hydrochloride) [Example 28, 3-(((5,5-dimethyl-1,4,5,6-tetrahydropyrimidin-2-yl)thio)methyl)-6,6-dimethyl-5,6-dihydroimidazo[2,1-b]thiazole dihydrochloride] it is more than 250 °C. Then `C1=C(CSC2=N[C@@H]3CCCC[C@H]3N2)N2CCCCN=C2S1` (as salt: hydrochloride) [Example 46, 3-((((3aR,7aR)-3a,4,5,6,7,7a-hexahydro-1H-benzo[d]imidazol-2-yl)thio)methyl)-5,6,7,8-tetrahydrothiazolo[3,2-a][1,3]diazepine dihydrochloride], with more than 250 °C; and `CC1(C)CN2C(CSC3=NCC(C)(C)N3)=CSC2=N1` (as salt: hydrochloride) [Example 2, 3-(((5,5-dimethyl-4,5-dihydro-1H-imidazol-2-yl)thio)methyl)-6,6-dimethyl-5,6-dihydroimidazo[2,1-b]thiazole dihydrochloride], with more than 250 °C.

In turn, `CC1(C)CN2C(CSC3=NCC(c4ccccc4)N3)=CSC2=N1` (stereo not shown) (as salt: hydrochloride) [Example 53, 6,6-dimethyl-3-(((4-phenyl-4,5-dihydro-1H-imidazol-2-yl)thio)methyl)-5,6-dihydroimidazo[2,1-b]thiazole dihydrochloride] showed a melting point of 110 to 120 °C.

For the compound `C1=C(CSC2=NCCN2)N2CCCN=C2S1` (as salt: hydrochloride) [Example 26, 3-(((4,5-dihydro-1H-imidazol-2-yl)thio)methyl)-6,7-dihydro-5H-thiazolo[3,2-a]pyrimidine dihydrochloride], the melting point is more than 250 °C. Turning to `CC1(C)CN=C(SCC2=CSC3=N[C@H]4CCCC[C@H]4N23)N1` (racemic) (as salt: hydrochloride) [Example 10, cis-3-(((4,4-dimethyl-4,5-dihydro-1H-imidazol-2-yl)thio)methyl)-4a,5,6,7,8,8a-hexahydrobenzo[4,5]imidazo[2,1-b]thiazole dihydrochloride], the melting point lay within 210 to 215 °C.

The compound `CC1(C)CN=C(SCC2=CSC3=NCCCCN23)N1` (as salt: hydrochloride) [Example 15, 3-(((5,5-dimethyl-4,5-dihydro-1H-imidazol-2-yl)thio)methyl)-5,6,7,8-tetrahydrothiazolo[3,2-a][1,3]diazepine dihydrochloride] yielded a melting point of 244 to 247 °C. In turn, `CC1(C)CN=C(SCC2=CSC3=NC(Cc4ccccc4)CN23)N1` (stereo not shown) (as salt: hydrochloride) [Example 18, 6-benzyl-3-(((5,5-dimethyl-4,5-dihydro-1H-imidazol-2-yl)thio)methyl)-5,6-dihydroimidazo[2,1-b]thiazole dihydrochloride] showed a melting point of 63 to 74 °C. Then `CCCCC1CN=C(SCC2=CSC3=N[C@H]4CCCCC4N23)N1` (mixture of isomers) (as salt: hydrochloride) [Example 54, trans-3-(((5-butyl-4,5-dihydro-1H-imidazol-2-yl)thio)methyl)-4a,5,6,7,8,8a-hexahydrobenzo[4,5]imidazo[2,1-b]thiazole dihydrochloride], with 226 to 230 °C; and `CC1(C)CN2C(CSC3=NCCCCN3)=CSC2=N1` (as salt: hydrochloride) [Example 12, 6,6-dimethyl-3-(((4,5,6,7-tetrahydro-1H-1,3-diazepin-2-yl)thio)methyl)-5,6-dihydroimidazo[2,1-b]thiazole dihydrochloride], with more than 250 °C; and `CC(C)[C@@H]1N=C2SC=C(CSC3=NCC(C)(C)N3)N2[C@H]1C(C)C` (racemic) (as salt: hydrochloride) [Example 62, trans-3-(((5,5-dimethyl-4,5-dihydro-1H-imidazol-2-yl)thio)methyl)-5,6-diisopropyl-5,6-dihydroimidazo[2,1-b]thiazole dihydrochloride], with 237 to 241 °C. The figure for `C1=C(CSC2=N[C@H]3COC[C@H]3N2)N2C(=N[C@@H]3COC[C@@H]32)S1` (mixture of isomers) (as salt: hydrochloride) [Example 36, mixture of (4aS,7aR)-3-((((3aS,6aR)-3a,4,6,6a-tetrahydro-1H-furo[3,4-d]imidazol-2-yl)thio)methyl)-4a,5,7,7a-tetrahydrofuro[3′,4′:4,5]imidazo[2,1-b]thiazole dihydrochloride and (4aR,7aS)-3-((((3aR,6aS)-3a,4,6,6a-tetrahydro-1H-furo[3,4-d]imidazol-2-yl)thio)methyl)-4a,5,7,7a-tetrahydrofuro[3′,4′: 4,5]imidazo[2,1-b]thiazole dihydrochloride] is more than 250 °C. Then `C1=C(CSC2=N[C@@H]3CCCC[C@H]3N2)N2CCN=C2S1` (as salt: hydrochloride) [Example 44, 3-((((3aR,7aR)-3a,4,5,6,7,7a-hexahydro-1H-benzo[d]imidazol-2-yl)thio)methyl)-5,6-dihydroimidazo[2,1-b]thiazole dihydrochloride], with 230 to 233 °C.

Turning to `CN1CCN=C1SCC1=CSC2=NC(C)(C)CN12` (as salt: hydrochloride) [Example 11, 6,6-dimethyl-3-(((1-methyl-4,5-dihydro-1H-imidazol-2-yl)thio)methyl)-5,6-dihydroimidazo[2,1-b]thiazole dihydrochloride], the melting point was 128 to 132 °C.

One may read the melting point as the temperature, or range, at which the solid turns liquid.
